Data reported in US11033559B2, “Leukocyte infiltration promoting agent and antitumor immunostimulatory agent” (OSAKA UNIVERSITY, priority 2015, dated 2021).

What was measured:
[1] = test system: B16-BL6 mouse melanoma cell line; assay: Tumor growth inhibition, subcutaneous tumor formed from melanoma cells; assay type: in vivo; conditions: B16-BL6-bearing mice; LPA 3 mg/kg i.p. once daily for seven days; 5-FU 100 mg/kg i.p. once weekly, 2 times
Method: LLC cells (1×10^6 cells in 100 μL PBS per animal) were subcutaneously injected into C57BL/6 NCrSlc mice aged 8 weeks (females) in the same manner as in Reference Example 1. An LPA solution for administration was prepared in the same manner as in Reference Example 1. 5-FU (Kyowa Hakko Kirin Co., Ltd.) was used as an anticancer drug. 5-FU was prepared as a solution in physiological saline (Otsuka Pharmaceutical Co., Ltd.). On day 7 post-inoculation, LLC-bearing mice that had developed a tumor with a volume of 30 to 50 mm^3 were selected and subjected to the experiment. The mice were assigned to three groups: a control group, a 5-FU group and an LPA group (n=3 per group). After grouping, LPA (3 mg/kg/100 μL), 5-FU (100 mg/kg/100 μL) or PBS (100 μL) was intraperitoneally administered to the mice. The administration of LPA or PBS was performed once daily for consecutive seven days. The administration of 5-FU was performed once weekly, 2 times in total (day 7 and day 14 post-inoculation). Tumor size was measured over time after the start of the administration. Tumor volume was calculated by the following formula: length×width×height×0.5.
The B16-BL6 mouse melanoma cell line was used. B16-BL6 cells (1×10^6 cells in […] PBS per animal) were subcutaneously injected into C57BL/6 NCrSlc mice aged 8 weeks (females). […]

[2] = test system: tumor blood vessels in Lewis lung cancer (LLC) tumor-bearing mice; assay: Structural changes in tumor blood vessels (anti-CD31 immunostaining) after administration of LPA or LPA derivative; assay type: in vivo; conditions: 3 mg/kg intraperitoneally once daily for five days, tumors harvested at 6 days, anti-CD31 staining
Method: LPA or an LPA derivative was administered to tumor-bearing mice generated by subcutaneous inoculation of a mouse cancer cell line, and post-administration structural changes in tumor blood vessels were examined.
Lewis lung cancer cells (hereinafter called LLC cells) were used as the mouse cancer cell line. LLC cells (1×10^6 cells in 100 μL PBS per animal) were subcutaneously injected into C57BL/6 NCrSlc mice aged 8 weeks (females, SLC, Inc.).
The LPA used was 18:1 LPA (Avanti Polar Lipids, Inc.). The LPA derivative used was VPC31144S (N-{(1S)-2-hydroxy-1-[(phosphonooxy)methyl]ethyl} (9Z) octade c-9-enamide). A 10 mM LPA stock solution and a 10 mM VPC31144S stock solution were separately prepared using 50% ethanol and stored at −30° C. Before use, each of the frozen stock solutions was thawed and homogenized with an ultrasonic cleaner (SND Co., Ltd.) for 1 minute. The solution was diluted in PBS to an appropriate concentration for administration at a dose of 3 mg/kg in 100 μL PBS.
On day 9 post-inoculation, LLC-bearing mice that had developed a tumor with a volume of 60 to 80 mm^3 (volume=length×width×height×0.5) were selected and subjected to the experiment. The mice were assigned to three groups: a control group, an LPA group and a VPC31144S group. Each group consisted of three mice. […]

lysophosphatidic acid [LPA]
inhibitory effect on growth of the tumor formed from melanoma cells [1]: comparable to that of 5-FU | network structure of tumor blood vessels [2]: continuous network structure of blood vessels
